# According to paper PMC4468427, “Antiviral activity of silymarin against chikungunya virus” (Scientific Reports, 2015):
# “Also recorded” adds a separate entry of the source. Like-named read-outs stand apart in the source and are kept apart here.
# Assays:
# [1] = MTS cytotoxicity assay on Vero cells; settings: African green monkey
# [2] = test system: Vero cells; assay: MTS cytotoxicity assay on Vero cells; settings: Vero cells, MTS assay, 2 days; more than 95% of treated cells viable
# [3] = MTS cytotoxicity assay on BHK-21 cells; settings: hamster
# [4] = test system: BHK-21 cells; assay: MTS cytotoxicity assay on BHK-21 cells; settings: BHK-21 cells, MTS assay, 2 days; more than 95% of treated cells viable
# [5] = test system: CHIKV; assay: Post-entry virus yield assay, CHIKV RNA copy number by qRT-PCR; settings: for Inhibitory effect against CHIKV replication (RNA copy number): virus yield assay, qRT-PCR, Vero cells
# [6] = test system: CHIKV; assay: Primary screening: CPE inhibition assay (confirmed by MTS) in CHIKV-infected Vero cells; settings: for Antiviral activity in CPE inhibition and MTS assays: MOI = 1, 48 h; for CPE inhibitory activity: highest concentrations (tested as high as 200 μg/ml), MOI = 1, 48 hpi
# [7] = test system: CHIKV replicon; parameters: method as in PMID 22205980; settings: previous study, cited from earlier work
smiles,measurement,setting,value
O=c1c(O)c(-c2ccc(O)cc2)oc2cc(O)cc(O)c12 [Kaempferol],CC50 at 48 h,[1],> 1000 mg/L
same,MNTD (maximum non-toxic dose),[2],>400 µg/mL
same,CC50 at 2 days,[3],537 mg/L
same,MNTD (maximum non-toxic dose),[4],>200 µg/mL
same,Inhibitory effect against CHIKV replication (RNA copy number),[5],neither kaempferol nor quercetin showed any significant inhibitory effect; also recorded: no significant inhibitory effect
same,Antiviral activity in CPE inhibition and MTS assays,[6],neither kaempferol nor quercetin showed significant antiviral activity
same,CPE inhibitory activity,[6],25%
O=c1c(O)c(-c2ccc(O)c(O)c2)oc2cc(O)cc(O)c12 [Quercetin],CC50 at 48 h,[1],> 1000 mg/L
same,MNTD (maximum non-toxic dose),[2],>400 µg/mL
same,CC50 at 2 days,[3],> 800 mg/L
same,MNTD (maximum non-toxic dose),[4],>500 µg/mL
same,Inhibitory effect against CHIKV replication (RNA copy number),[5],neither kaempferol nor quercetin showed any significant inhibitory effect; also recorded: no significant inhibitory effect
same,Antiviral activity in CPE inhibition and MTS assays,[6],neither kaempferol nor quercetin showed significant antiviral activity
same,CPE inhibitory activity,[6],25%
COc1cc(C2Oc3cc([C@H]4Oc5cc(O)cc(O)c5C(=O)[C@@H]4O)ccc3OC2CO)ccc1O (stereo partly shown) [Silybin],IC50,[7]; converted from μM,approximately 30 μg/ml
same,IC50,[7]; read-out: IC50,59.8 µM
same,CC50 at 48 h,[1],> 200 mg/L
same,MNTD (maximum non-toxic dose),[2],>50 µg/mL
same,IC50,"[5]; Chikungunya virus, Vero",69.7 mg/L
